# Measured values taken from PubChem BioAssay AID2060495 (Molecular Pharmacology Branch, DTP, NCI, 2025).
# pIC50: −log10 of the molar value.
# Tested on: 521955-158-R2-J5-PDC complex spheroid viability
# Test: Anticancer human tumor 521955-158-R2-J5-PDC patient-derived pancreatic carcinoma cell line growth inhibition [GQUAD]
# Conditions: for pIC50: curve of first compound; for viability, T/C: stronger effect = lower value
# Summary of the method: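 Tumor cells were grown as complex spheroids with HUVEC endothelial cells and mesenchymal stem cells as stroma. G-quadruplex stabilizers were combined with targeted agents over half-log dilutions from near the clinical Cmax, or from 10 microM.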
# [1] = second compound 0.0316 µM, first compound 0.0316 µM
# [2] = second compound 0.0316 µM, first compound 0.316 µM
# [3] = second compound 0.1 µM, first compound 0.0316 µM
# [4] = second compound 0.1 µM, first compound 0.316 µM
# [5] = second compound 0.316 µM, first compound 0.0316 µM
# [6] = second compound 0.316 µM, first compound 0.316 µM
# [7] = second compound 1 µM, first compound 0.0316 µM
# [8] = second compound 1 µM, first compound 0.316 µM
# [9] = second compound 3.16 µM, first compound 0.0316 µM
# [10] = second compound 3.16 µM, first compound 0.316 µM
# [11] = second compound 10 µM, first compound 0.0316 µM
# [12] = second compound 10 µM, first compound 0.316 µM
# [13] = second compound 0.0316 µM, first compound 0.1 µM
# [14] = second compound 0.0316 µM, first compound 1 µM
# [15] = second compound 0.0316 µM, first compound 3.16 µM
# [16] = second compound 0.0316 µM, first compound 10 µM
# [17] = second compound 0.1 µM, first compound 0.1 µM
# [18] = second compound 0.1 µM, first compound 1 µM
# [19] = second compound 0.1 µM, first compound 3.16 µM
# [20] = second compound 0.1 µM, first compound 10 µM
# [21] = second compound 0.316 µM, first compound 0.1 µM
# [22] = second compound 0.316 µM, first compound 1 µM
# [23] = second compound 0.316 µM, first compound 3.16 µM
# [24] = second compound 0.316 µM, first compound 10 µM
# [25] = second compound 1 µM, first compound 0.1 µM
# [26] = second compound 1 µM, first compound 1 µM
# [27] = second compound 1 µM, first compound 3.16 µM
# [28] = second compound 1 µM, first compound 10 µM
# [29] = second compound 3.16 µM, first compound 0.1 µM
# [30] = second compound 3.16 µM, first compound 1 µM
# [31] = second compound 3.16 µM, first compound 3.16 µM
# [32] = second compound 3.16 µM, first compound 10 µM
# [33] = second compound 10 µM, first compound 0.1 µM
# [34] = second compound 10 µM, first compound 1 µM
# [35] = second compound 10 µM, first compound 3.16 µM
# [36] = second compound 10 µM, first compound 10 µM
# 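Further: spheroids exposed to agents for one week before reading.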
# 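Wherever viability, T/C is given: 100% = DMSO vehicle control viability.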
structure (smiles),measurement,setting,value
CC[C@@]1(O)C(=O)OCc2c1cc1n(c2=O)Cc2cc3c(CN(C)C)c(O)ccc3nc2-1 + CN(C)c1ccc(Nc2c3ccc(NC(=O)CCN4CCCC4)cc3nc3cc(NC(=O)CCN4CCCC4)ccc23)cc1,pIC50,second compound 0.0316 µM,6.92
same,pIC50,second compound 0.1 µM,7.03
same,pIC50,second compound 0.316 µM,7.06
same,pIC50,second compound 1 µM,7.01
same,pIC50,second compound 3.16 µM,7.10
same,pIC50,second compound 10 µM,7.10
same,"viability, T/C","second compound 0.0316 µM, first compound 0.000999 µM",106%
same,"viability, T/C","second compound 0.0316 µM, first compound 0.00316 µM",118%
same,"viability, T/C","second compound 0.0316 µM, first compound 0.00999 µM",110%
same,"viability, T/C",[1],86.7%
same,"viability, T/C","second compound 0.0316 µM, first compound 0.0999 µM",55.8%
same,"viability, T/C",[2],28.2%
same,"viability, T/C","second compound 0.1 µM, first compound 0.000999 µM",85.3%
same,"viability, T/C","second compound 0.1 µM, first compound 0.00316 µM",108%
same,"viability, T/C","second compound 0.1 µM, first compound 0.00999 µM",95.1%
same,"viability, T/C",[3],82.2%
same,"viability, T/C","second compound 0.1 µM, first compound 0.0999 µM",48.2%
same,"viability, T/C",[4],41.2%
same,"viability, T/C","second compound 0.316 µM, first compound 0.000999 µM",101%
same,"viability, T/C","second compound 0.316 µM, first compound 0.00316 µM",98.5%
same,"viability, T/C","second compound 0.316 µM, first compound 0.00999 µM",98.7%
same,"viability, T/C",[5],89.4%
same,"viability, T/C","second compound 0.316 µM, first compound 0.0999 µM",44.3%
same,"viability, T/C",[6],28.6%
same,"viability, T/C","second compound 1 µM, first compound 0.000999 µM",131%
same,"viability, T/C","second compound 1 µM, first compound 0.00316 µM",91.6%
same,"viability, T/C","second compound 1 µM, first compound 0.00999 µM",95.7%
same,"viability, T/C",[7],82.8%
same,"viability, T/C","second compound 1 µM, first compound 0.0999 µM",43.1%
same,"viability, T/C",[8],24.9%
same,"viability, T/C","second compound 3.16 µM, first compound 0.000999 µM",101%
same,"viability, T/C","second compound 3.16 µM, first compound 0.00316 µM",101%
same,"viability, T/C","second compound 3.16 µM, first compound 0.00999 µM",81.2%
same,"viability, T/C",[9],76.9%
same,"viability, T/C","second compound 3.16 µM, first compound 0.0999 µM",41.2%
same,"viability, T/C",[10],26.5%
same,"viability, T/C","second compound 10 µM, first compound 0.000999 µM",63.7%
same,"viability, T/C","second compound 10 µM, first compound 0.00316 µM",62.3%
same,"viability, T/C","second compound 10 µM, first compound 0.00999 µM",53.4%
same,"viability, T/C",[11],63.5%
same,"viability, T/C","second compound 10 µM, first compound 0.0999 µM",45.2%
same,"viability, T/C",[12],31.4%
C#Cc1c(F)ccc2cc(O)cc(-c3ncc4c(N5CC6CCC(C5)N6)nc(OCC56CCCN5CC(F)C6)nc4c3F)c12 (stereo not drawn) + Cc1[nH]c2ccc(F)cc2c1-c1nc2c3cccnc3c3ncccc3c2[nH]1,pIC50,second compound 0.0316 µM,5.79
same,pIC50,second compound 0.1 µM,< 5.00
same,pIC50,second compound 0.316 µM,5.46
same,pIC50,second compound 1 µM,5.12
same,pIC50,second compound 3.16 µM,5.37
same,pIC50,second compound 10 µM,5.98
same,"viability, T/C",[1],79.8%
same,"viability, T/C",[13],68.6%
same,"viability, T/C",[2],67.3%
same,"viability, T/C",[14],40.5%
same,"viability, T/C",[15],57%
same,"viability, T/C",[16],36.3%
same,"viability, T/C",[3],82.2%
same,"viability, T/C",[17],81%
same,"viability, T/C",[4],64.4%
same,"viability, T/C",[18],45.1%
same,"viability, T/C",[19],58.3%
same,"viability, T/C",[20],46.4%
same,"viability, T/C",[5],74.9%
same,"viability, T/C",[21],67.4%
same,"viability, T/C",[6],53%
same,"viability, T/C",[22],61%
same,"viability, T/C",[23],54%
same,"viability, T/C",[24],42.7%
same,"viability, T/C",[7],58.9%
same,"viability, T/C",[25],72.2%
same,"viability, T/C",[8],68.2%
same,"viability, T/C",[26],57.5%
same,"viability, T/C",[27],59.1%
same,"viability, T/C",[28],47.4%
same,"viability, T/C",[9],54.1%
same,"viability, T/C",[29],58.5%
same,"viability, T/C",[10],59.5%
same,"viability, T/C",[30],50%
same,"viability, T/C",[31],62.7%
same,"viability, T/C",[32],30.9%
same,"viability, T/C",[11],53.3%
same,"viability, T/C",[33],55.4%
same,"viability, T/C",[12],60.6%
same,"viability, T/C",[34],47.4%
same,"viability, T/C",[35],39.4%
same,"viability, T/C",[36],26.6%
CC(C)(O)C1CCC(Nc2ccc3ncc(-c4cccc(C(F)(F)F)c4)n3n2)CC1 (stereo not drawn) + CN(C)c1ccc(Nc2c3ccc(NC(=O)CCN4CCCC4)cc3nc3cc(NC(=O)CCN4CCCC4)ccc23)cc1,pIC50,second compound 0.0316 µM,5.69
same,pIC50,second compound 0.1 µM,5.70
same,pIC50,second compound 0.316 µM,5.69
same,pIC50,second compound 1 µM,5.70
same,pIC50,second compound 3.16 µM,5.74
same,pIC50,second compound 10 µM,5.89
same,"viability, T/C",[1],102%
same,"viability, T/C",[13],107%
same,"viability, T/C",[2],105%
same,"viability, T/C",[14],111%
same,"viability, T/C",[15],13.1%
same,"viability, T/C",[16],19.7%
same,"viability, T/C",[3],101%
same,"viability, T/C",[17],103%
same,"viability, T/C",[4],98.5%
same,"viability, T/C",[18],117%
same,"viability, T/C",[19],10.4%
same,"viability, T/C",[20],18.7%
same,"viability, T/C",[5],106%
same,"viability, T/C",[21],88%
same,"viability, T/C",[6],113%
same,"viability, T/C",[22],113%
same,"viability, T/C",[23],16.1%
same,"viability, T/C",[24],17.5%
same,"viability, T/C",[7],95.4%
same,"viability, T/C",[25],107%
same,"viability, T/C",[8],95.8%
same,"viability, T/C",[26],116%
same,"viability, T/C",[27],15.1%
same,"viability, T/C",[28],13.6%
same,"viability, T/C",[9],82%
same,"viability, T/C",[29],87.3%
same,"viability, T/C",[10],79.2%
same,"viability, T/C",[30],99.5%
same,"viability, T/C",[31],13.8%
same,"viability, T/C",[32],15%
same,"viability, T/C",[11],70.4%
same,"viability, T/C",[33],73.1%
same,"viability, T/C",[12],64.6%
same,"viability, T/C",[34],62.2%
same,"viability, T/C",[35],6.61%
same,"viability, T/C",[36],1.12%
CCCS(=O)(=O)Nc1ccc(F)c(C(=O)c2c[nH]c3ncc(-c4ccc(Cl)cc4)cc23)c1F + CN(C)c1ccc(Nc2c3ccc(NC(=O)CCN4CCCC4)cc3nc3cc(NC(=O)CCN4CCCC4)ccc23)cc1,pIC50,second compound 0.0316 µM,< 5.00
same,pIC50,second compound 0.1 µM,< 5.00
same,pIC50,second compound 0.316 µM,< 5.00
same,pIC50,second compound 1 µM,< 5.00
same,pIC50,second compound 3.16 µM,5.17
same,pIC50,second compound 10 µM,5.43
same,"viability, T/C",[1],124%
same,"viability, T/C",[13],89.2%
same,"viability, T/C",[2],80.7%
same,"viability, T/C",[14],118%
same,"viability, T/C",[15],271%
same,"viability, T/C",[16],106%
same,"viability, T/C",[3],102%
same,"viability, T/C",[17],84%
same,"viability, T/C",[4],72.4%
same,"viability, T/C",[18],109%
same,"viability, T/C",[19],264%
same,"viability, T/C",[20],106%
same,"viability, T/C",[5],95.5%
same,"viability, T/C",[21],90.1%
same,"viability, T/C",[6],92.5%
same,"viability, T/C",[22],104%
same,"viability, T/C",[23],248%
same,"viability, T/C",[24],98.3%
same,"viability, T/C",[7],95.4%
same,"viability, T/C",[25],76.4%
same,"viability, T/C",[8],76.8%
same,"viability, T/C",[26],171%
same,"viability, T/C",[27],251%
same,"viability, T/C",[28],85.2%
same,"viability, T/C",[9],73%
same,"viability, T/C",[29],83.6%
same,"viability, T/C",[10],61%
same,"viability, T/C",[30],111%
same,"viability, T/C",[31],174%
same,"viability, T/C",[32],22.9%
same,"viability, T/C",[11],69.9%
same,"viability, T/C",[33],68.4%
same,"viability, T/C",[12],111%
same,"viability, T/C",[34],100%
same,"viability, T/C",[35],58%
same,"viability, T/C",[36],2.26%
